# Reference: publication PMC6225228, “Design, Synthesis and Evaluation of N-pyrazinylbenzamides as Potential Antimycobacterial Agents” (Molecules : A Journal of Synthetic Chemistry and Natural …, 2018)
# Where two headings read alike, the source gives them in different places. Marks after values point to notes of the source that are not given here.
# Columns and labels:
# [1] = system: Mycobacterium tuberculosis H37Rv (Mtb); settings: cited from earlier work; for Amides MIC (value in parentheses): second value in parentheses
# [2] = system: Mycobacterium tuberculosis H37Rv (Mtb); settings: cited from earlier work
# [3] = system: Candida glabrata 20/I; experiment: Antifungal microdilution broth, CG; format: cell-based; settings: Nakaseomyces glabratus, 20/I, read-out: MIC CG
# [4] = system: Staphylococcus aureus CCM 4516/08; experiment: Antibacterial microdilution broth, SA; format: cell-based; settings: Staphylococcus aureus
# [5] = system: Trichophyton interdigitale 445; experiment: Antifungal microdilution broth, TI; format: cell-based; settings: read-out: MIC TI
# [6] = system: Staphylococcus epidermidis H 6966/08; experiment: Antibacterial microdilution broth, SE; format: cell-based; settings: Staphylococcus epidermidis, read-out: MIC SE
# [7] = system: Aspergillus fumigatus 231; experiment: Antifungal microdilution broth, AF; format: cell-based; settings: read-out: MIC AF
# [8] = system: Mycobacterium smegmatis CCM 4622 (ATCC 607); experiment: Antimycobacterial microdilution, M. smegmatis; format: cell-based; settings: Mycolicibacterium smegmatis, read-out: M. smeg. ATCC 607 MIC
# [9] = system: Lichtheimia corymbifera 272; experiment: Antifungal microdilution broth, LC; format: cell-based; settings: read-out: MIC LC
# [10] = system: Enterococcus sp. J 14365/08; experiment: Antibacterial microdilution broth, EF; format: cell-based; settings: Enterococcus, read-out: MIC EF
# [11] = system: M. avium ssp. avium CNCTC My 80/72 (ATCC 15769); experiment: Antimycobacterial microdilution MABA, M. avium; format: cell-based, Mycobacterium avium; settings: Mycobacterium avium, ATCC15769, pH 6.6, read-out: M. avium ATCC 15769 MIC
# [12] = system: Candida albicans ATCC 44859; experiment: Antifungal microdilution broth, CA; format: cell-based; settings: Candida albicans, read-out: MIC CA
# [13] = system: Escherichia coli CCM 4517; experiment: Antibacterial microdilution broth, EC; format: cell-based; settings: Escherichia coli, read-out: MIC EC
# [14] = system: Candida krusei E28; experiment: Antifungal microdilution broth, CK; format: cell-based; settings: Pichia kudriavzevii, read-out: MIC CK
# [15] = system: Candida tropicalis 156; experiment: Antifungal microdilution broth, CT; format: cell-based; settings: read-out: MIC CT
# [16] = system: Staphylococcus aureus H 5996/08 methicillin resistant; experiment: microbe, parasite or virus in culture; format: cell-based; settings: Staphylococcus aureus, MRSA, read-out: MIC MRSA
# [17] = system: Mycobacterium tuberculosis H37Rv CNCTC My 331/88 (ATCC 27294); experiment: Antimycobacterial microdilution MABA, M. tuberculosis; format: cell-based
# [18] = system: Pseudomonas aeruginosa CCM 1961; experiment: Antibacterial microdilution broth, PA; format: cell-based; settings: Pseudomonas aeruginosa, read-out: MIC PA
# [19] = system: Trichosporon asahii 1188; experiment: Antifungal microdilution broth, TA; format: cell-based; settings: read-out: MIC TA
# [20] = system: M. kansasii CNCTC My 235/80 (ATCC 12478); experiment: Antimycobacterial microdilution MABA, M. kansasii; format: cell-based, Mycobacterium kansasii; settings: Mycobacterium kansasii, ATCC12478, pH 6.6, read-out: M. kans. ATCC 12478 MIC, Middlebrook 7H9 with OADC, pH 6.6, MABA
# [21] = Middlebrook 7H9, pH = 6.6, MABA
# [22] = Šula's semisynthetic medium, pH = 5.6, turbidity, first value
# [23] = Šula's semisynthetic medium, pH = 5.6, turbidity
structure (smiles),measurement,setting,value
O=C(Nc1ccccc1Cl)c1cnccn1 [Amide R1=H R2=2-Cl],Amides MIC,"[1]; Šula's semisynthetic medium, pH = 5.6, growth indicated by turbidity",50 ^c [19] μg/mL
O=C(Nc1cccc(C(F)(F)F)c1)c1cncc(Cl)n1 [Amide R1=6-Cl R2=3-CF3],Amides Inhibition (%) at 6.25 μg/mL (TAACF),[2],77 [32] %
COc1ccccc1NC(=O)c1cnccn1 [Amide R1=H R2=2-OCH3],Amides MIC,[1]; [21],>100 ^b [27] μg/mL
O=C(Nc1ccc(Br)cc1)c1cnc(Cl)cn1 [Amide R1=5-Cl R2=4-Br],Amides MIC,[1]; [22],3.13 ^c [18] μg/mL
O=C(Nc1cccc(Cl)c1)c1cncc(Cl)n1 [Amide R1=6-Cl R2=3-Cl],Amides Inhibition (%) at 6.25 μg/mL (TAACF),[2],14 [33] %
O=C(Nc1ccccc1)c1cnccn1 [Amide R1=H R2=H],Amides Inhibition (%) at 6.25 μg/mL (TAACF),[2],0 [31] %
same,Amides MIC,[1]; [21],>100 ^b [27] μg/mL
Cc1ccc(NC(=O)c2cnccn2)cc1 [Amide R1=H R2=4-CH3],Amides Inhibition (%) at 6.25 μg/mL (TAACF),[2],86 [32] %
same,Amides MIC,[1]; [21],100 ^b [27] μg/mL
COc1cccc(NC(=O)c2cnccn2)c1 [Amide R1=H R2=3-OCH3],Amides MIC,[1]; [21],>100 ^b [27] μg/mL
O=C(Nc1ccc(O)cc1)c1cnc(Cl)cn1 [Amide R1=5-Cl R2=4-OH],Amides MIC,[1]; [22],3.13 µg/mL
same,Amides MIC (value in parentheses),[1]; [23],12.5 µg/mL
O=C(Nc1cccc(C(F)(F)F)c1)c1cnc(Cl)cn1 [Amide R1=5-Cl R2=3-CF3],Amides MIC,[1]; [22],3.13 µg/mL
same,Amides MIC (value in parentheses),[1]; [23],6.25 µg/mL
O=C(Nc1cccc(O)c1)c1cnc(Cl)cn1 [Amide R1=5-Cl R2=3-OH],Amides MIC,[1]; [22],6.25 ^c [18] μg/mL
O=C(Nc1ccccc1Cl)c1cncc(Cl)n1 [Amide R1=6-Cl R2=2-Cl],Amides MIC,"[1]; Šula's semisynthetic medium, pH = 5.6, MABA",100 ^d [34] μg/mL
O=C(Nc1cnc(Cl)cn1)c1cccc(Cl)c1 [Compound 2k],MIC,[3]; 24 h,> 125 µM
same,MIC,[3]; 48 h,> 125 µM
same,MIC,"[4]; CCM4516, 24 h, read-out: MIC SA, 24 h",> 125 µM
same,MIC,"[4]; CCM4516, 48 h, read-out: MIC SA, 48 h",> 125 µM
same,MIC,"[4]; CCM4516, read-out: MIC against S. aureus, time not stated",> 125 µM
same,MIC,"[5]; Trichophyton interdigitale, 445, 72 h",> 125 µM
same,MIC,"[5]; Trichophyton interdigitale, 445, 120 h",> 125 µM
same,MIC,"[6]; H6966/08, 24 h",> 125 µM
same,MIC,"[6]; H6966/08, 48 h",> 125 µM
same,MIC,"[7]; Aspergillus fumigatus, 231, 24 h",> 125 µM
same,MIC,"[7]; Aspergillus fumigatus, 231, 48 h",> 125 µM
same,MIC,[8],≥ 500 µg/mL
same,MIC,"[9]; Lichtheimia corymbifera, 272, 24 h",> 125 µM
same,MIC,"[9]; Lichtheimia corymbifera, 272, 48 h",> 125 µM
same,MIC,"[10]; SP.J14365/08, 24 h",> 125 µM
same,MIC,"[10]; SP.J14365/08, 48 h",> 125 µM
same,MIC,[11],> 100 µg/mL
same,MIC,"[12]; ATCC44859, 24 h",> 125 µM
same,MIC,"[12]; ATCC44859, 48 h",> 125 µM
same,MIC,"[13]; CCM4517, 24 h",> 125 µM
same,MIC,"[13]; CCM4517, 48 h",> 125 µM
same,MIC,"[14]; E28, 24 h",> 125 µM
same,MIC,"[14]; E28, 48 h",> 125 µM
same,MIC,"[15]; Candida tropicalis, 156, 24 h",> 125 µM
same,MIC,"[15]; Candida tropicalis, 156, 48 h",> 125 µM
same,MIC,[16]; 24 h,> 125 µM
same,MIC,[16]; 48 h,> 125 µM
same,Mtb H37Rv ATCC 27294 MIC,"[17]; Middlebrook 7H9 with OADC growth supplement, pH = 6.6, MABA",>100 µg/mL
same,MIC,"[17]; Mycobacterium tuberculosis, read-out: Mtb H37Rv ATCC 27294 MIC, Middlebrook 7H9 with OADC growth supplement, pH = 6.6, MABA",> 100 µg/mL
same,MIC,"[18]; CCM1961, 72 h",> 125 µM
same,MIC,"[18]; CCM1961, 120 h",> 125 µM
same,MIC,"[19]; Trichosporon asahii, 1188, 24 h",> 125 µM
same,MIC,"[19]; Trichosporon asahii, 1188, 48 h",> 125 µM
same,MIC,[20],> 100 µg/mL
same,melting point,,150.7 to 151.9 °C
